Drawing on paper PMC12525688, “Anti-Helicobacter pylori Activity and Gastroprotective Effects of Diacetylcurcumin and Four Metal Derivatives” (Molecules, 2025), this text covers IC50 and inhibition for four molecules.

SMILES strings stand for the structures. Where two headings read alike, the source gives them in different places.

Test [1] deals with T1, Helicobacter pylori urease (Helicobacter pylori, UniProt P69996).
T1 construct: gene ureB; native urease from supernatant of sonicated H. pylori ATCC 43504; with urease subunit alpha (UreA)
Put plainly: Berthelot colorimetric urease activity assay with lysate supernatant (partially purified urease). The test is classed as biochemical.

The target of another test is T2, E. coli DNA gyrase (Escherichia coli, UniProt P0AES4+P0AES6).
T2 construct: gene gyrA; DNA gyrase of the TopoGEN E. coli DNA Gyrase Drug Screening kit; with DNA gyrase subunit B (GyrB)
Put plainly: DNA supercoiling assay (agarose gel), […] inhibition at […]. The test is classed as biochemical.

T1 sequence (P14916 whole entry): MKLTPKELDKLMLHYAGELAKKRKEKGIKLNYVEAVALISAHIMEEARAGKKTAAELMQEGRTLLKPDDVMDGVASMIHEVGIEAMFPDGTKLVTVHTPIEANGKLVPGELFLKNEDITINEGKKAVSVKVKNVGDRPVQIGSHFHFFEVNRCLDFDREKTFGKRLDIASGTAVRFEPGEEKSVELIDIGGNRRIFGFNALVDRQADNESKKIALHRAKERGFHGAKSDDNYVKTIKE
T1 sequence (P69996 whole entry): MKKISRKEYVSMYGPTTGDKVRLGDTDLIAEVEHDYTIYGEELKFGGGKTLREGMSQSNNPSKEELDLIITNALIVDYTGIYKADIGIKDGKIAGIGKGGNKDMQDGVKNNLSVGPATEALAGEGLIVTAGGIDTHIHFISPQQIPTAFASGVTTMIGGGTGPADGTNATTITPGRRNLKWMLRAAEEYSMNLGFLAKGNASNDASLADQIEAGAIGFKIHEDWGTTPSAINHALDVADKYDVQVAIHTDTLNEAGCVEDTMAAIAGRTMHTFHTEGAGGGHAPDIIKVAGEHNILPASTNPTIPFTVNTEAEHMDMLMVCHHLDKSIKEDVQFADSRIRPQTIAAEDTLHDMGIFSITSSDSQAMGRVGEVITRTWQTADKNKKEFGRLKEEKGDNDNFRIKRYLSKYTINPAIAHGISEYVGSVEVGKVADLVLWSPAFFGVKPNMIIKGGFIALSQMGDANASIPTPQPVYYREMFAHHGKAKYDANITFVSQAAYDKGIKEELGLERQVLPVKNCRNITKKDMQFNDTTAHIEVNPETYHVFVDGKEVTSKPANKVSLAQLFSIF
T2 sequence (P0AES4 2-875, one chain of several): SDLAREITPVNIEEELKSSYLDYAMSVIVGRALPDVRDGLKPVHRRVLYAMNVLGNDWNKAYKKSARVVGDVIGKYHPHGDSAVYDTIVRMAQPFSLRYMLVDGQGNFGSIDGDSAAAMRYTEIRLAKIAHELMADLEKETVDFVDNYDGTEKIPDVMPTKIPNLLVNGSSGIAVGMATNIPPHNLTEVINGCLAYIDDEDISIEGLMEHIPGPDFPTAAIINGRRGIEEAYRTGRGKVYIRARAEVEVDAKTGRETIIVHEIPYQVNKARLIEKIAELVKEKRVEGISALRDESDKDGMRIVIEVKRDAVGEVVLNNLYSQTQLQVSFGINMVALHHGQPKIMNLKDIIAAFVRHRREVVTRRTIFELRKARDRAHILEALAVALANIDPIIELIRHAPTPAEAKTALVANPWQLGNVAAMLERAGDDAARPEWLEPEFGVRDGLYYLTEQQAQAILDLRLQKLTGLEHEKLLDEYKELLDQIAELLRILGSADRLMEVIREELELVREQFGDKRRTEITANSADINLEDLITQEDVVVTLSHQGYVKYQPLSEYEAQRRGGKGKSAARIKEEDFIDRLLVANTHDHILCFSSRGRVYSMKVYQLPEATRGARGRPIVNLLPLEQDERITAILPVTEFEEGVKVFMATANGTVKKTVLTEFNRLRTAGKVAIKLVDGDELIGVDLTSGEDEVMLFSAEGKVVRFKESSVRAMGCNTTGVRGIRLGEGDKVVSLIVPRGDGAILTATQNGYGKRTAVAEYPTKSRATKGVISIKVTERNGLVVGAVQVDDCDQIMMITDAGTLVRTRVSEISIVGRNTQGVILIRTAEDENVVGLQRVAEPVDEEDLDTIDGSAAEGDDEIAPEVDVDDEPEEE

As to `CC(=O)NO` [AHA, acetohydroxamic acid], in test [1] (read-out: IC50), the IC50 is 488 µM.
In turn, `COc1cc(/C=C/C(=O)C=C(/C=C/c2ccc(OC(C)=O)c(OC)c2)[O][Cu][O]C(=CC(=O)/C=C/c2ccc(OC(C)=O)c(OC)c2)/C=C/c2ccc(OC(C)=O)c(OC)c2)ccc1OC(C)=O` [DAC2-Cu] returned a half-maximal inhibitory concentration (IC50) in test [1] of 20.4 µM.
The same measure, in the same setting: the same measure for `COc1cc(/C=C/C(=O)C=C(/C=C/c2ccc(OC(C)=O)c(OC)c2)[O][Zn][O]C(=CC(=O)/C=C/c2ccc(OC(C)=O)c(OC)c2)/C=C/c2ccc(OC(C)=O)c(OC)c2)ccc1OC(C)=O` [DAC2-Zn]: 12.4 µM.
On E. coli DNA gyrase, `O=C(O)c1cn(C2CC2)c2cc(N3CCNCC3)c(F)cc2c1=O` [ciprofloxacin] showed an inhibition at 3 µM of 100%.
